In ChEMBL document CHEMBL4177611, “Discovery of aminocyclohexene analogues as selective and orally bioavailable hNav1.7 inhibitors for analgesia” (Bioorg Med Chem Lett, 2017):
One block for each compound: values may come before it. Active and inactive are the calls of the source.

Assays:
[1] = Volume of distribution at steady state in Sprague-Dawley rat at 3 mg/kg administered as single iv bolus by LC-MS/MS analysis; type: ADME, organism-based; conditions: in vivo, read-out: Vdss
[2] = target: Sodium channel protein type 9 subunit alpha (Homo sapiens, UniProt Q15858); assay: Inhibition of human Nav1.7 expressed in CHO-K1 cells at -120 mV holding potential incubated over 5 mins measured at 15 secs interval by Qpatch clamp assay; type: cell-based
[3] = Clearance in Sprague-Dawley rat administered as single iv bolus by LC-MS/MS analysis; type: ADME, organism-based; conditions: in vivo
[4] = Volume of distribution at steady state in Sprague-Dawley rat administered as single iv bolus by LC-MS/MS analysis; type: ADME, organism-based; conditions: in vivo, read-out: Vdss
[5] = AUC in Sprague-Dawley rat at 10 mg/kg administered as single dose via oral gavage by LC-MS/MS analysis; type: ADME, organism-based; conditions: in vivo
[6] = Oral bioavailability in Sprague-Dawley rat at 10 mg/kg administered as single dose via gavage by LC-MS/MS analysis; type: ADME, organism-based; conditions: in vivo
[7] = Initial plasma concentration in Sprague-Dawley rat at 3 mg/kg administered as single iv bolus by LC-MS/MS analysis; type: ADME, organism-based
[8] = Half life in Sprague-Dawley rat at 3 mg/kg administered as single iv bolus by LC-MS/MS analysis; type: ADME, organism-based; conditions: in vivo
[9] = Clearance in Sprague-Dawley rat at 3 mg/kg administered as single iv bolus by LC-MS/MS analysis; type: ADME, organism-based; conditions: in vivo
[10] = AUC (0 to last) in Sprague-Dawley rat at 3 mg/kg administered as single iv bolus by LC-MS/MS analysis; type: ADME, organism-based; parameters: dose 3 mg/kg, route intravenous, time 0 - last; conditions: in vivo
[11] = Cmax in Sprague-Dawley rat at 10 mg/kg administered as single dose via oral gavage by LC-MS/MS analysis; type: ADME, organism-based; parameters: dose 10 mg/kg, route oral; conditions: in vivo
[12] = Tmax in Sprague-Dawley rat at 10 mg/kg administered as single dose via oral gavage by LC-MS/MS analysis; type: ADME, organism-based; conditions: in vivo
[13] = Half life in Sprague-Dawley rat at 10 mg/kg administered as single dose via oral gavage by LC-MS/MS analysis; type: ADME, organism-based; conditions: in vivo
[14] = AUC (0 to last) in Sprague-Dawley rat at 10 mg/kg administered as single dose via oral gavage by LC-MS/MS analysis; type: ADME, organism-based; parameters: dose 10 mg/kg, route oral, time 0 - last; conditions: in vivo
Rattus norvegicus [15] = assay: Unbound AUC (0 to last) in Sprague-Dawley rat at 10 mg/kg administered as single dose via oral gavage by LC-MS/MS analysis; type: ADME, organism-based; conditions: in vivo
[16] = Dissociation constant, pKa of the compound; type: physicochemical
[17] = target: Sodium channel protein type 5 subunit alpha (Homo sapiens, UniProt Q14524); assay: Inhibition of human Nav1.5 expressed in HEK293 cells at -120 mV holding potential incubated over 5 mins measured at 15 secs interval by Qpatch clamp assay; type: cell-based
[18] = target: Sodium channel protein type 4 subunit alpha (Homo sapiens, UniProt P35499); type: ADME
[19] = Fraction unbound in human plasma at 2 uM after 4 hrs by LC-MS/MS analysis; type: ADME, cell-free
[20] = Fraction unbound in rat plasma at 2 uM after 4 hrs by LC-MS/MS analysis; type: ADME, cell-free
[21] = Intrinsic clearance in human liver microsomes at 1 uM after 60 mins in presence of NADPH by LC-MS/MS analysis; type: ADME, microsome; conditions: read-out: CLH
[22] = Intrinsic clearance in rat liver microsomes at 1 uM after 60 mins in presence of NADPH by LC-MS/MS analysis; type: ADME, microsome; conditions: read-out: CLH
Rattus norvegicus [23] = assay: Antinociceptive activity in Sprague-Dawley rat formalin-induced nociception model assessed as inhibition of formalin-induced flinches in phase 2 at 30 mg/kg, po administered via oral gavage 60 mins before formalin challenge measured for 1 hr post dose; type: functional, organism-based
Rattus norvegicus [24] = assay: Antinociceptive activity in Sprague-Dawley rat formalin-induced nociception model assessed as inhibition of formalin-induced flinches in phase 1 at 30 mg/kg, po administered via oral gavage 60 mins before formalin challenge measured for 1 hr post dose; type: functional, organism-based
Rattus norvegicus [25] = assay: Antiallodynic activity in Sprague-Dawley rat spinal nerve ligation model assessed as reduction in mechanical allodynia by measuring paw withdrawal threshold at 100 mg/kg, po measured at 2 hrs post dose; type: functional, organism-based
[26] = Plasma concentration in Sprague-Dawley rat spinal nerve ligation model at 100 mg/kg administered as single dose via oral gavage measured after 1 hr by LC-MS/MS analysis; type: ADME, organism-based
[27] = Plasma concentration in Sprague-Dawley rat spinal nerve ligation model at 100 mg/kg administered as single dose via oral gavage measured after 2 hrs by LC-MS/MS analysis; type: ADME, organism-based
[28] = Plasma concentration in Sprague-Dawley rat spinal nerve ligation model at 100 mg/kg administered as single dose via oral gavage measured after 4 hrs by LC-MS/MS analysis; type: ADME, organism-based
[29] = Unbound plasma concentration in Sprague-Dawley rat spinal nerve ligation model at 100 mg/kg administered as single dose via oral gavage measured after 1 hr by LC-MS/MS analysis; type: ADME, organism-based; conditions: in vivo
[30] = Unbound plasma concentration in Sprague-Dawley rat spinal nerve ligation model at 100 mg/kg administered as single dose via oral gavage measured after 2 hrs by LC-MS/MS analysis; type: ADME, organism-based; conditions: in vivo
[31] = Unbound plasma concentration in Sprague-Dawley rat spinal nerve ligation model at 100 mg/kg administered as single dose via oral gavage measured after 4 hrs by LC-MS/MS analysis; type: ADME, organism-based; conditions: in vivo
[32] = Drug uptake in Sprague-Dawley rat dorsal root ganglion at 100 mg/kg, ig measured after 2.5 hrs by LC-MS/MS analysis; type: ADME, organism-based; conditions: in vivo, po
Homo sapiens [33] = species: Homo sapiens; assay: Selectivity ratio of IC50 for human Nav1.4 to IC50 for human Nav1.7 expressed in CHO-K1 cells; type: cell-based
Homo sapiens [34] = species: Homo sapiens; assay: Selectivity ratio of IC50 for human Nav1.5 expressed in HEK293 cells to IC50 for human Nav1.7 expressed in CHO-K1 cells; type: cell-based
Cytochrome P450 1A2 = target: T1, Cytochrome P450 1A2 (Homo sapiens, UniProt P05177)
T1 sequence (P05177 whole entry): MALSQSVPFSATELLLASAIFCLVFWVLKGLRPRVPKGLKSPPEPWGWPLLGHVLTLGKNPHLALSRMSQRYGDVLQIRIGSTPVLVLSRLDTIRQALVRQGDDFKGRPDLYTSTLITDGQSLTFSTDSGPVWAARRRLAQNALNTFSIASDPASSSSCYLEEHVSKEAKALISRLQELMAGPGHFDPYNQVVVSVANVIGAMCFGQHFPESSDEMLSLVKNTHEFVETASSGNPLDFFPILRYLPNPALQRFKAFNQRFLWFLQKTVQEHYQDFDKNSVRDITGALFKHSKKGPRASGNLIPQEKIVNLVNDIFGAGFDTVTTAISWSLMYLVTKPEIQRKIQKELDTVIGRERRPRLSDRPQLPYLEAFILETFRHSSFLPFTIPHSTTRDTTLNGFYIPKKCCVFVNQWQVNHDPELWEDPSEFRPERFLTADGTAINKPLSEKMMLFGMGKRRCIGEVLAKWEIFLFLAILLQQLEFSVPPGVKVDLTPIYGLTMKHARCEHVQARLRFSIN

Cytochrome P450 2C9 = Cytochrome P450 2C9 (Homo sapiens, UniProt P11712)
Cytochrome P450 2C19 = Cytochrome P450 2C19 (Homo sapiens, UniProt P33261)
Cytochrome P450 2D6 = Cytochrome P450 2D6 (Homo sapiens, UniProt P10635)
Cytochrome P450 3A4 = Cytochrome P450 3A4 (Homo sapiens, UniProt P08684)
[35] = target: Voltage-gated inwardly rectifying potassium channel KCNH2 (Homo sapiens, UniProt Q12809)
in vitro [36] = conditions: human, Caco-2
in vitro [37] = conditions: human, Caco-2; remark: listed apart in the source
physchem [38] = conditions: buffer, pH 7.4
physchem [39] = conditions: buffer, pH 7.4; remark: listed apart in the source
[40] = Ratio of total drug level in iv dosed rat brain to plasma measured 2 hrs post dose; type: ADME, organism-based; conditions: read-out: BPR
[41] = AUC in Sprague-Dawley rat at 2 mg/kg administered as single dose via oral gavage by LC-MS/MS analysis; type: ADME, organism-based; conditions: in vivo
[42] = Initial plasma concentration in Sprague-Dawley rat at 0.5 mg/kg administered as single iv bolus by LC-MS/MS analysis; type: ADME, organism-based
[43] = Cmax in Sprague-Dawley rat at 2 mg/kg administered as single dose via oral gavage by LC-MS/MS analysis; type: ADME, organism-based; parameters: dose 2 mg/kg, route oral; conditions: in vivo
[44] = Half life in Sprague-Dawley rat at 2 mg/kg administered as single dose via oral gavage by LC-MS/MS analysis; type: ADME, organism-based; conditions: in vivo
Rattus norvegicus [45] = assay: Unbound AUC (0 to last) in Sprague-Dawley rat at 2 mg/kg administered as single dose via oral gavage by LC-MS/MS analysis; type: ADME, organism-based; conditions: in vivo
[46] = Drug level in po dosed rat plasma treated with 5-chloro-4-(((1R,6R)-6-(ethylamino)-2-(4-fluorophenyl)cyclohex-2-enyl)methoxy)-2-fluoro-N-(thiazol-4-yl)benzenesulfonamide; type: ADME, organism-based; conditions: in vivo

Chain of Sodium channel protein type 4 subunit alpha (P35499 whole entry): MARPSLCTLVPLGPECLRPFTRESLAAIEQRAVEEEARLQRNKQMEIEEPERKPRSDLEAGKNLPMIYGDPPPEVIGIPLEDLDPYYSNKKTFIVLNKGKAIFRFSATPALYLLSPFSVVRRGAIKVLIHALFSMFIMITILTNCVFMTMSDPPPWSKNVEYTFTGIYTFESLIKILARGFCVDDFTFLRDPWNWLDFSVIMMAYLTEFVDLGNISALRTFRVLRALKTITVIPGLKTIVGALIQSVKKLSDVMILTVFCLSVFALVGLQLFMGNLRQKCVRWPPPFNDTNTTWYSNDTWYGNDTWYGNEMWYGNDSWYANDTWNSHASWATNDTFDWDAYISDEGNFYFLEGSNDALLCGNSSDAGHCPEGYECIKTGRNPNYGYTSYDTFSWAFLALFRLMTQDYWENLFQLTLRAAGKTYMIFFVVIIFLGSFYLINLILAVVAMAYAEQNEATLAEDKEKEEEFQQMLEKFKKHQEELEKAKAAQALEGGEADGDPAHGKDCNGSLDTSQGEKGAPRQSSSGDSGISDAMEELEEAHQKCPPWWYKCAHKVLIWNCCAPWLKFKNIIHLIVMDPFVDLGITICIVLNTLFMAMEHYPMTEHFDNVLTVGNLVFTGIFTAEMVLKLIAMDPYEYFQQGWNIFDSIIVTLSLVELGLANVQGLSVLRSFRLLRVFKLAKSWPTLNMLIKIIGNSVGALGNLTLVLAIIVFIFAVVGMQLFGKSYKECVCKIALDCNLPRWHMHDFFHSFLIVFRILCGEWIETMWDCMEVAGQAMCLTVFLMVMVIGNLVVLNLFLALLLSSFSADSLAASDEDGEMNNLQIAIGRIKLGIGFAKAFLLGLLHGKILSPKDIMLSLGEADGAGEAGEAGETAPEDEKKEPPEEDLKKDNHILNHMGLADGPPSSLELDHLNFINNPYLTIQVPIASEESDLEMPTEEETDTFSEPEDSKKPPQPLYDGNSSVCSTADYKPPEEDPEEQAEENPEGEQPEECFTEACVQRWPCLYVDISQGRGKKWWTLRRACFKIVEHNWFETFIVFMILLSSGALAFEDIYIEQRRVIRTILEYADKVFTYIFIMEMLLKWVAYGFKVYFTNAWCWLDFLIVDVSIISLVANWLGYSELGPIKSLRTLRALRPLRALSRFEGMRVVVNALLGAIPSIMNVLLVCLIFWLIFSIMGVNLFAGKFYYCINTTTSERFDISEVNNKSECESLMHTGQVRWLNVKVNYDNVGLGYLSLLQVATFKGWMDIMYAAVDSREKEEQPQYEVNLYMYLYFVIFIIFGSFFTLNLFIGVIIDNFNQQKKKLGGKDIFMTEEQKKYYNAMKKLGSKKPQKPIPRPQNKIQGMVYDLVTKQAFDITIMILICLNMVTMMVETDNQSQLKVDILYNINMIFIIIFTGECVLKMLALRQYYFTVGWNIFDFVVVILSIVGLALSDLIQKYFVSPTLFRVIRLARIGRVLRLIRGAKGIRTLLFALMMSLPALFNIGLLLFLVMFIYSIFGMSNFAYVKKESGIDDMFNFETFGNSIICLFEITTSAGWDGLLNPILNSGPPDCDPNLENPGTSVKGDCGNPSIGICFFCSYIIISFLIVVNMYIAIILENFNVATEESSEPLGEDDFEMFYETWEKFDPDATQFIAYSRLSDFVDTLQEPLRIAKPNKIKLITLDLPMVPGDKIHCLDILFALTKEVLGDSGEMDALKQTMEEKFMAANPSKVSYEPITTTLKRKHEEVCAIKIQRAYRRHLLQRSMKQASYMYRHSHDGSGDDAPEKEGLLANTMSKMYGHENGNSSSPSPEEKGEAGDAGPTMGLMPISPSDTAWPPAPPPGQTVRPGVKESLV
Chain of Sodium channel protein type 9 subunit alpha (Q15858 whole entry): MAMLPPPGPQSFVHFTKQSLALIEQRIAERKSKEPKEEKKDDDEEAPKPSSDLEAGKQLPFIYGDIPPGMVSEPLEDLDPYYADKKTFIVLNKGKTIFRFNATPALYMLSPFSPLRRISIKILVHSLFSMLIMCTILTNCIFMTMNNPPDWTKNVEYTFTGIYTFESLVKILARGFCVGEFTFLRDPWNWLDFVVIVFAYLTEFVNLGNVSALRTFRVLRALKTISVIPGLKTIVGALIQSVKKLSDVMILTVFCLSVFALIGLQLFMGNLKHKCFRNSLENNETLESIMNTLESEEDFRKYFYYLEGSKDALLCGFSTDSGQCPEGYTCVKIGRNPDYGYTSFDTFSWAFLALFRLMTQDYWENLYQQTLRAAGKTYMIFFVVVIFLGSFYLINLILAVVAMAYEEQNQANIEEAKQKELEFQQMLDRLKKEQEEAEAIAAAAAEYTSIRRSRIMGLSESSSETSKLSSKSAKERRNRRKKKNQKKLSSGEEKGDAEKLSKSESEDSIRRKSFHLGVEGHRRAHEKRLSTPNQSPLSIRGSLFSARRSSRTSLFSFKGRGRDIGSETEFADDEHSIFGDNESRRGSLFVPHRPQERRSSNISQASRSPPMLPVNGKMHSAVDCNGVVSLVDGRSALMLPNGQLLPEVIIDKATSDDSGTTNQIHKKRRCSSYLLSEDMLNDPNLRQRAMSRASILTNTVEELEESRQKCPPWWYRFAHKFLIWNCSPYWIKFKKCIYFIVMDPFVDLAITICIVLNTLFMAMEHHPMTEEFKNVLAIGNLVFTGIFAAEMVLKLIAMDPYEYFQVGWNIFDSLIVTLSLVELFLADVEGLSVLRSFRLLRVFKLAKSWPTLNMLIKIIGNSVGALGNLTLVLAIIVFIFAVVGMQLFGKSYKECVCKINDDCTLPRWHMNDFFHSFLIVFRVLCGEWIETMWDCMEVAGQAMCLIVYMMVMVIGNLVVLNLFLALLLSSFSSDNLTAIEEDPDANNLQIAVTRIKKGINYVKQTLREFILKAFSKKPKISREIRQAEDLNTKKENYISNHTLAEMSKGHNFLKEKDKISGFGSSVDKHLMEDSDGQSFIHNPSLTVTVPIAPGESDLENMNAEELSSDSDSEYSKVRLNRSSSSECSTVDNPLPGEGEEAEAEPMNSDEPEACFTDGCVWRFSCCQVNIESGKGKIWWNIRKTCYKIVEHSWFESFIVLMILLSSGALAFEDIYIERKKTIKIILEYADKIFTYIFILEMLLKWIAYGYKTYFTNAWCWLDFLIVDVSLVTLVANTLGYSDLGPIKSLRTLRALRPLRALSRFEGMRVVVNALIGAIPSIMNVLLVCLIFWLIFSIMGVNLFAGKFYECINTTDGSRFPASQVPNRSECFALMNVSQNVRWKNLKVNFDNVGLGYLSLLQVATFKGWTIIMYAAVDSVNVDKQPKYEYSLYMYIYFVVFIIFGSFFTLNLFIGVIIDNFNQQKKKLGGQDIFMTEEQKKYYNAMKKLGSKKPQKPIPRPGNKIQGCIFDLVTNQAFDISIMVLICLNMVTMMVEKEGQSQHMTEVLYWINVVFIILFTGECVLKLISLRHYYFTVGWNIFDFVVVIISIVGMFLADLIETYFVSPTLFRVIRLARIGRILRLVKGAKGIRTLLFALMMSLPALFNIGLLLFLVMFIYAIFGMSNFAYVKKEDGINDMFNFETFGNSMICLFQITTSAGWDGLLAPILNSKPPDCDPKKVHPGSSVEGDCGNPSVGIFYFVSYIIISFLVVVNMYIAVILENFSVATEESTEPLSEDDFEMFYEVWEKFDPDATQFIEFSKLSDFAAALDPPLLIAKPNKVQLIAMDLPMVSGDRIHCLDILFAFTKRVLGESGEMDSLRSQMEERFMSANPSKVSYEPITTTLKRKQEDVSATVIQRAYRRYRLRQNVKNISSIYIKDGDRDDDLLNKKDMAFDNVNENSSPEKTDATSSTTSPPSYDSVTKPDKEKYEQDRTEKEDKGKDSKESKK
Chain of Voltage-gated inwardly rectifying potassium channel KCNH2 (Q12809 whole entry): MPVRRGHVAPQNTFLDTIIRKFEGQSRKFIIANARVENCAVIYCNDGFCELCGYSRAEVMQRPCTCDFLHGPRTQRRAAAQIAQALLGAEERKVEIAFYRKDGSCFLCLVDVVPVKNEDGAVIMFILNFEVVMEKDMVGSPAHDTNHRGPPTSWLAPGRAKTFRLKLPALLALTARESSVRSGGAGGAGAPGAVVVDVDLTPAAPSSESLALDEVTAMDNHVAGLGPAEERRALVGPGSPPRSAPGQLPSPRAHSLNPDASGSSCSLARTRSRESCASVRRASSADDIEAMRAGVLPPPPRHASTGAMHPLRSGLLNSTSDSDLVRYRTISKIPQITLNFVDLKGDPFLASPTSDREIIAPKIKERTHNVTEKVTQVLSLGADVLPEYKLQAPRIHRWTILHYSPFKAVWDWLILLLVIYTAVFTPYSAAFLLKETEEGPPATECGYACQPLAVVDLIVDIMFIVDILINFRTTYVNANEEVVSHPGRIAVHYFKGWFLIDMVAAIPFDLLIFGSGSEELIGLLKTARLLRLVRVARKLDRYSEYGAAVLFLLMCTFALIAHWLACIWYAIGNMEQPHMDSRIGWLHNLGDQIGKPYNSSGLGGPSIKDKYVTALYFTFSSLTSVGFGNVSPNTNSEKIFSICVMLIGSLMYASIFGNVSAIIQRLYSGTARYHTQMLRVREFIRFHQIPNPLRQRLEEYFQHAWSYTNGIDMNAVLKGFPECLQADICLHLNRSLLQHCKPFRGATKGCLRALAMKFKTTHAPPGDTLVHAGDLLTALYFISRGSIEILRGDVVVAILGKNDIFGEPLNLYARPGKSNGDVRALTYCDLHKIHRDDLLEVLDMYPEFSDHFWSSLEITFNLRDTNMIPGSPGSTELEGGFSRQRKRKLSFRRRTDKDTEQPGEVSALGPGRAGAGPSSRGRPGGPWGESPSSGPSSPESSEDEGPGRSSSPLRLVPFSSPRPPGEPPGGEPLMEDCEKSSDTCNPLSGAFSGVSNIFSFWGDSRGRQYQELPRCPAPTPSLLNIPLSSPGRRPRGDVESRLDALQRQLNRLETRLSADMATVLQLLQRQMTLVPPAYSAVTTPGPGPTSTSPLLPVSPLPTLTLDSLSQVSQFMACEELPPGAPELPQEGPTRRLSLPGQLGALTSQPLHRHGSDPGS

Vd [1]: 5.77 L/kg | IC50 [2]: 0.088 µM | clearance [3]: 1.19 L/h/kg | Vd [4]: 5.77 L/kg | AUC [5]: 4.86 µM·h | bioavailability [6]: 30% | C0 [7]: 2.8 µM | half-life [8]: 3.64 h | clearance [9]: 1.19 L/h/kg | AUC(0-t) [10]: 4.92 µM·h | Cmax [11]: 0.66 µM | Tmax [12]: 2.67 h | half-life [13]: 3.39 h | AUC(0-t) [14]: 4.86 µM·h | fAUClast (Rattus norvegicus [15]): 0.141 µM·h | pKa [16]: 7.09 to 9.18 | IC50 [18]: 2.9 µM | fraction unbound at 4 h, 2 µM [19]: 0.004 | fraction unbound at 4 h, 2 µM [20]: 0.029 | CLint scaled at 1 µM [21]: 1.05 L/h/kg | CLint scaled at 1 µM [22]: 1.82 L/h/kg | concentration at 1 h [26]: 3.74 µM | concentration at 2 h [27]: 3.82 µM | concentration at 4 h [28]: 3.16 µM | Cp(f) [29]: 0.108 µM | Cp(f) [30]: 0.11 µM | Cp(f) [31]: 0.091 µM | Drug uptake [32]: 3.1 µM/g | IC50 (Cytochrome P450 1A2): > 50 µM | IC50 (Cytochrome P450 2C9): 11.8 µM | IC50 (Cytochrome P450 2C19): 26.2 µM | IC50 (Cytochrome P450 2D6): 3 µM | IC50 (Cytochrome P450 3A4): 33 µM | Papp A→B at 2 h, 2 µM (in vitro [36]): 0.4 nm/s | efflux ratio at 2 h, 2 µM (in vitro [37]): 251 | logD (physchem [38]): 1.5 | solubility thermodynamic (physchem [39]): 135 µM
SMILES: Cl.N[C@@H]1CCC=C(c2ccc(F)cc2)[C@H]1CNc1cc(F)c(S(=O)(=O)Nc2cscn2)cc1Cl
IC50 [17]: 4.02 µM | inhibition (Rattus norvegicus [23]): Active | inhibition (Rattus norvegicus [24]): inactive | Activity (Rattus norvegicus [25]): Active | Ratio IC50 (Homo sapiens [33]): > 30 | Ratio IC50 (Homo sapiens [34]): > 30 | IC50 [35]: 4.6 µM

SMILES: N[C@@H]1CCC=C(c2ccc(F)cc2)[C@H]1COc1cc(F)c(S(=O)(=O)Nc2cscn2)cc1Cl
Kp at 2 h [40]: 0.13 | clearance [3]: 2.34 to 2.35 L/h/kg | Vd [4]: 8.91 L/kg | AUC [41]: 0.25 µM·h | C0 [42]: 0.41 µM | Cmax [43]: 0.05 µM | half-life [44]: 2.74 h | fAUClast (Rattus norvegicus [45]): 0.005 µM·h | pKa [16]: 6.13 to 9.05 | IC50 [18]: 4 µM | fraction unbound at 4 h, 2 µM [19]: 0.008 | fraction unbound at 4 h, 2 µM [20]: 0.02 | Drug uptake [46]: Active
